Data: patent US12514859B2, “Pyrazole pyrimidine derivative and uses thereof” (Yissum Research Development Company of the Hebrew …, priority 2015, dated 2026)

Columns and labels:
[1] = test system: bone marrow cells isolated from CML blast crisis mice; assay: Ex vivo inhibitor effects on bone marrow cells from CML blast crisis mice; type: cell-based, mouse; conditions: 8 hours
Method: Ex vivo inhibitor effects (FIGS. 2A and 13A-E). Freshly isolated BM from AML (13A-E) or CML blast crisis (2A) carrying mice were grown in RPMI supplemented with 15% FCS, L-Glutamine, Pen/Strep, Hepes, Sodium Pyruvate and non-essential amino acids (Biological Industries, Israel). CKI inhibitors (A14, A51, A75 or A86) were dissolved in DMSO and added to the tissue culture medium at the indicated concentrations; control cultures were treated with DMSO only. Several hours following treatment (as indicated in each experiment), cells were harvested and counted manually using a camera and standard inverted light microscope. Dead cells were excluded using Trypan Blue (Sigma). AnnexinV-PE (MBL), 7AAD (Tonbo) and PD-L1 (BioLegend) staining was evaluated by FACS according to manufacturer's recommendation.
FACS analysis. All assays were performed on BD's equipment: FACS caliber, FACS ARIA sorter or LSR II machines. For immunostaining, cells were suspended in a 1% BSA/PBS buffer with […]. Cells were then analyzed by using Annexin V PE Apootosis Detection Kit (eBioscience), 7-AAD (TONBO biosciences) and PE anti-mouse CD274 (B7-H1, PD-L1) antibody (clone 10F.9G2, BioLegend); Assays were performed according to the manufacturer's instruction. Monoclonal antibodies specific for CD16 and CD32 (Miltenyi Biotec) were used for blockade of Fc receptors before staining.

[2] = test system: p53, DNA damage response (γH2AX); assay: p53 and DNA damage response activation in RKO cells (Western blot, primary screen and dose response); type: cell-based; conditions: 16 hours, Western blot, average value
Method: Primary Screen in RKO cells for compounds having typical CKIα inhibitory activity (β-catenin and p53 stabilization and histone H2AX phosphorylation; see Elyada et al, Nature 2011 Feb. 17; 470(7334):409-13; Pribluda et al, Cancer Cell 2013 Aug. 12; 24(2):242-56). RKO colorectal cells were incubated with 10 μM of each of the compounds for 16 hours at 37° C. Cells were washed with PBS and cell pellets were incubated with ice cold protein lysis buffer containing protease inhibitor cocktail (1/200; Calbiochem) and phosphatase inhibitors (20 mM p-nitrophenyl phosphate (PNPP), 20 mM β-glycerophosphate and 300 nM okadaic acid). Western blot analysis was performed by means of standard techniques. Blots were incubated with antibodies detecting β-catenin (1/2,500; BD Transduction), p53 (DO-1&1801 hybridoma mix; dilution of 1:20 of supernatants from each), CKIα (C-19; 1/1,000; Santa Cruz Biotechnology) and phospho-histoneH2AX (S139; 1/1,000; Millipore). Secondary antibodies were HRP-linked goat anti-mouse, goat anti-rabbit and rabbit anti-goat antibodies (all 1/10,000; Jackson). Blots were developed using ECL (GE Healthcare).
Active compounds were further analyzed in a dose-response experiment (FIGS. 1A and 1B). Similar to the primary screen, RKO cells were incubated with descending concentrations of each of the active compounds for 16 hours at 37° C. Cell extract isolation and Western Blot analysis were similar to the primary screen.
Table 1 provides quantified information for compounds of the invention in activation of p53 and DNA damage response (DDR) and β-catenin stabilization as an indicator of Wnt pathway activation. p53 activation was determined according to the degree of protein stabilization in several Western blot assays (Western blot examples are shown in FIGS. 1A and 1B). […] In contrast, A35 started stabilizing p53 at […], with maximal stabilization at […] (FIG. 1A, upper right panel) and thus received an average value of +++ for p53 activation.

CML blast crisis mice = assay: CML blast crisis mouse model (BCR-ABL); type: in vivo; conditions: oral 10 mg/kg once a day, day 9
Method: Generation of a mouse model of CML blast crisis and inhibitor studies in this model. To generate the BCR-ABL-inducible chronic myeloid leukemia (CML) model, bone marrow (BM) cells from 10 weeks wild type mouse were extracted and enriched for cKit expressing cells (EasySep #18757) and incubated overnight at 37° C. in RPMI growth medium supplemented with 15% FCS, L-Glutamine, Pen/Strep (Biological Industries, Israel) and stem cell factor (SCF), IL-3, IL-6 and TPO (Peprotcch). The culture was then infected with p210BCR-ABL-IRES-GFP retrovirus construct containing supernatant medium for 4 hours, then growth medium was added and infected cells were incubated at 37° C. for additional 24 h. […] Upon observing a fast steady increase of GFP-expressing cells in the peripheral blood of inoculated mice (by FACS) and rising numbers of leukocyte and immature cells (detected by Wright-Giemsa stained blood films), mice were sacrificed and their BM cells were transferred to new sublethally irradiated WT hosts; each such transfer was termed disease generation. […] Blast crisis development was readily detectable by a highly abnormal number of blast cells, more than 30% of white blood cells (WBC) in the peripheral blood (PB), and short time intervals between transfers. […] Mice were monitored daily for cachexia, weight loss, lethargy, and ruff coats, and moribund mice were sacrificed upon moribund. […]

`Cn1ncc(-c2ccnc(N[C@H]3CC[C@H](N)CC3)n2)c1CC1CC1` [Compound A14, (1R, 4R)—N^1-(4-(5-(cyclopropylmethyl)-1-methyl-1H-pyrazol-4-yl)pyrimidin-2-yl)cyclohexane-1,4-diamine] was tested, and the “apoptosis of bone marrow cells (Annexin5+/7AAD−) (in words)” value ([1]; dose dependent) was “induces apoptosis”, the “total death (7AAD+) cells (in words)” value ([1]; dose dependent) was “increased percentage of total death (7AAD+) cells” and the “leukemic cell number (in words)” value ([1]; dose response) was “dramatic reduction of the leukemic cell number”. For the same molecule, the “DDR & p53 activity” value [2] was “+++ (+++ indicates maximal β-catenin or p53 stabilization at >2 μM)” and the “leukemia cell burden in the peripheral blood and bone marrow (in words)” value (CML blast crisis mice) was “significantly reduces the leukemia cell burden”.
